# Results taken from patent US20170135339A1, “COATING FORMULATION FOR SEED AND SURFACE STERILIZATION” (priority 2015, published 2017).
# Experiments:
# [1] = test system: Poliovirus type 1 Chat strain
# [2] = test system: Human adenovirus type 5 Adenoid 75 strain
substance,measurement,setting,value
zinc pyrithione,Reduction in virus titration,[1],at least 4 log
same,Reduction ratio in virus titration,[1],4.5 Logarithmic TCID50
same,Virus titration with disinfectant,[1],1.5 Logarithmic TCID50
same,Cytopathic effect on the cells in the cell culture,HEp-2 cells,showed cytopathic effect
same,Lowest ratio of zinc pyrithione solution which does not show cytopathic effect,HEp-2 cells,0.01%
same,Activity against the virus,[2],99.9%
same,Reduction in virus titration,[2],at least 4 log
same,Reduction ratio in virus titration,[2],4.0 Logarithmic TCID50
same,Virus titration with disinfectant,[2],1.0 Logarithmic TCID50
